# Results published in ChEMBL document CHEMBL5321251, “Visible light-activated prodrug system with a novel heavy-atom-free photosensitizer” (Bioorg Med Chem Lett, 2023).
# The source made the active and inactive calls. No cut-off for these calls is given here.
# What was measured:
# HeLa [1] = assay: Cytotoxicity against human HeLa cells assessed as inhibition of cell growth pre-treated with compound for 3 hrs followed by 620/25 nm red light irradiation for 30 mins measured after 72 hrs by CCK-8 assay; assay type: functional, cell-based; conditions: for IC50: light or radiation study
# [2] = Photoactivation of the compound assessed as photocleavage in the presence of 520/25 nm green light irradiation by LC-MS analysis
# [3] = Photoactivation of the compound assessed as photocleavage in the presence of 620/25 nm red light irradiation measured after 30 mins by LC-MS analysis; conditions: 0.5 h
# [4] = Photoactivation of the compound assessed as photocleavage in the absence of 620/25 nm red light irradiation measured after 2 hrs by LC-MS analysis
# HeLa [5] = assay: Cytotoxicity against human HeLa cells assessed as inhibition of cell growth pre-treated with compound for 3 hrs measured after 72 hrs in dark condition by CCK-8 assay; assay type: functional, cell-based; conditions: time 75.0 hrs
# [6] = Photoactivation of the compound assessed as photocleavage in the presence of 620/25 nm red light irradiation by LC-MS analysis
# [7] = Photoactivation of the compound assessed as photocleavage in the presence of 620/25 nm red light irradiation measured after 2 hrs by LC-MS analysis
SMILES,IC50 (HeLa [1]),Drug metabolism [2],Drug metabolism [3],Drug metabolism [4],Activity (HeLa [5]),Drug metabolism (HeLa [1]; time 75.5 hrs),Drug metabolism [6],Drug metabolism [7]
CC(=O)O[C@H]1C(=O)[C@@]2(C)[C@H]([C@H](OC(=O)c3ccccc3)[C@]3(O)C[C@H](OC(=O)[C@H](OC(=O)/C=C/N4CCC(COC(=O)CN5C(=S)c6cc7ccc(N(C)C)cc7cc6C5=S)CC4)[C@@H](NC(=O)c4ccccc4)c4ccccc4)C(C)=C1C3(C)C)[C@]1(OC(C)=O)CO[C@@H]1C[C@@H]2O,7.2 nM,Metabolite_Detected,80%,Metabolite_Notdetected,inactive,–,–,–
CC(=O)O[C@H]1C(=O)[C@@]2(C)[C@H]([C@H](OC(=O)c3ccccc3)[C@]3(O)C[C@H](OC(=O)[C@H](O)[C@@H](NC(=O)c4ccccc4)c4ccccc4)C(C)=C1C3(C)C)[C@]1(OC(C)=O)CO[C@@H]1C[C@@H]2O [PACLITAXEL],13.2 nM,–,–,–,–,–,–,–
CC(=O)O[C@H]1C(=O)[C@@]2(C)[C@H]([C@H](OC(=O)c3ccccc3)[C@]3(O)C[C@H](OC(=O)[C@H](OC(=O)/C=C/N4CCC(COC(=O)CN5C(=O)c6cc7ccc(N(C)C)cc7cc6C5=O)CC4)[C@@H](NC(=O)c4ccccc4)c4ccccc4)C(C)=C1C3(C)C)[C@]1(OC(C)=O)CO[C@@H]1C[C@@H]2O,–,–,–,–,–,Metabolite not detected,Metabolite_Notdetected,–
COc1ccc(/C=C\c2cc(OC)c(OC)c(OC)c2)cc1OC(=O)/C=C/N1CCC(COC(=O)CN2C(=S)c3cc4ccc(N(C)C)cc4cc3C2=S)CC1,14.5 nM,–,50%,Metabolite_Notdetected,–,–,–,< 20%
CCc1c2c(nc3ccc(OC(=O)/C=C/N4CCC(COC(=O)CN5C(=S)c6cc7ccc(N(C)C)cc7cc6C5=S)CC4)cc13)-c1cc3c(c(=O)n1C2)COC(=O)[C@]3(O)CC,84 nM,–,50%,Metabolite_Notdetected,–,–,–,< 20%
